We go through 23 compounds from patent publication US9169254B2, “Spiroimidazolone derivative” (Chugai Seiyaku Kabushiki Kaisha, priority 2009, dated 2015).

For this assay, the target named is T1, human PTH1 receptor (Homo sapiens, UniProt Q03431).
T1 sequence (Q03431 27-593): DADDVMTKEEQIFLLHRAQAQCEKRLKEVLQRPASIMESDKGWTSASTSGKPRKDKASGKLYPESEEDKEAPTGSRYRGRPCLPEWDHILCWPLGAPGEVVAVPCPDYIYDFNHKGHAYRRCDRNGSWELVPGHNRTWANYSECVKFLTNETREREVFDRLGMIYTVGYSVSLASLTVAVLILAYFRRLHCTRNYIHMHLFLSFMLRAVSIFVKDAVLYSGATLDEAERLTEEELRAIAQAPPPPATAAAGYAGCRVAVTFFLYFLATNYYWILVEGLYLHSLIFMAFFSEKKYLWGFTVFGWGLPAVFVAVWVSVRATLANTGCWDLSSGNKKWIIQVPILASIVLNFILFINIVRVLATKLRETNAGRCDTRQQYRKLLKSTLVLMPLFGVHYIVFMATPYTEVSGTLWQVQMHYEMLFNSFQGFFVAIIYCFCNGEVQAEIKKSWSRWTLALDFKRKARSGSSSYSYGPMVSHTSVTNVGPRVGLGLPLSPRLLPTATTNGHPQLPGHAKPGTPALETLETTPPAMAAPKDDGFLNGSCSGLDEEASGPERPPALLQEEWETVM
In words: In vitro cAMP signal activity in HKRK-B7 cells (LLC-PK1 cells overexpressing the human PTH1 receptor). The assay is classed as cell-based. The conditions noted are these: HKRK-B7 cells; compound at 1×10^−3 M; cAMP produced as percentage of that produced by hPTH(1-34) at 100 nM.

Take `Cc1cc(N2C(=O)N(C)C(C)(C)C2=O)cc(C)c1/C=C/S(=O)(=O)N1CCC2(CC1)N=C(c1cccc(OC(F)(F)F)c1)NC2=O` [Compound 614, 3-(3,5-dimethyl-4-{(E)-2-[4-oxo-2-(3-trifluoromethoxy-phenyl)-1,3,8-triaza-spiro[4.5]dec-1-ene-8-sulfonyl]-vinyl}-phenyl)-1,5,5-trimethyl-imidazolidine-2,4-dione]: the “cAMP production activity (%)” value is 25%.

`Cc1cc(N(CC#N)C(N)=O)ccc1/C=C/S(=O)(=O)N1CCC2(CC1)N=C(c1cccc(OC(F)(F)F)c1)NC2=O` [Compound 729, 1-Cyanomethyl-1-(3-methyl-4-{(E)-2-[4-oxo-2-(3-trifluoromethoxy-phenyl)-1,3,8-triaza-spiro[4.5]dec-1-ene-8-sulfonyl]-vinyl}-phenyl)-urea]: the “cAMP production activity (%)” value was determined as 45%.

Take `Cc1cc(N(CCO)C(=O)NCCO)cc(C)c1/C=C/S(=O)(=O)N1CCC2(CC1)N=C(c1cccc(OC(F)(F)F)c1)NC2=O` [Compound 532, 1-(3,5-dimethyl-4-{(E)-2-[4-oxo-2-(3-trifluoromethoxy-phenyl)-1,3,8-triaza-spiro[4.5]dec-1-ene-8-sulfonyl]-vinyl}-phenyl)-1,3-bis-(2-hydroxy-ethyl)-urea]: the “cAMP production activity (%)” value came to 80%.

On to `Cc1cc(C(=O)N(C)C)ccc1CCS(=O)(=O)N1CCC2(CC1)N=C(c1cccc(COCC(F)(F)F)c1)NC2=O` [Compound 168, 3,N,N-Trimethyl-4-(2-{4-oxo-2-[3-(2,2,2-trifluoro-ethoxymethyl)-phenyl]-1,3,8-triaza-spiro[4.5]dec-1-ene-8-sulfonyl}-ethyl)-benzamide], for which the “cAMP production activity (%)” value turned out to be 69%.

`Cc1cc(N(C)C(N)=O)cc(C)c1CCS(=O)(=O)N1CCC2(CC1)N=C(c1ccc3c(c1)CCCC3)NC2=O` [Compound 1039, 1-(3,5-Dimethyl-4-{2-[4-oxo-2-(5,6,7,8-tetrahydro-naphthalen-2-yl)-1,3,8-triaza-spiro[4.5]dec-1-ene-8-sulfonyl]-ethyl}-phenyl)-1-methyl-urea]: the “cAMP production activity (%)” value is 103%.

Consider `Cc1cc2c(CCS(=O)(=O)N3CCC4(CC3)N=C(C3CCCCC3)NC4=O)cccc2[nH]1` [Compound 745, 2-Cyclohexyl-8-[2-(2-methyl-1H-indol-4-yl)-ethanesulfonyl]-1,3,8-triaza-spiro[4.5]dec-1-en-4-one], for which the “cAMP production activity (%)” value is on record as 67%.

As for `Cc1cc(C(=O)N2CCC(O)(CF)CC2)cc(C)c1/C=C/S(=O)(=O)N1CCC2(CC1)N=C(c1ccc(C(F)(F)F)c(OC(C)(C)C(F)(F)F)c1)NC2=O` [Compound 1266, 8-{(E)-2-[4-(4-fluoromethyl-4-hydroxy-piperidine-1-carbonyl)-2,6-dimethyl-phenyl]-ethenesulfonyl}-2-[3-(2,2,2-trifluoro-1,1-dimethyl-ethoxy)-4-trifluoromethyl-phenyl]-1,3,8-triaza-spiro[4.5]dec-1-en-4-one], the “cAMP production activity (%)” value was 96%.

On to `O=C1NC(C2CCCCC2)=NC12CCN(S(=O)(=O)CC(O)c1cccc3c1ccn3C[C@H](O)CO)CC2` (stereo partly drawn) [Compound 1374, 2-Cyclohexyl-8-{2-[1-((S)-2,3-dihydroxy-propyl)-1H-indol-4-yl]-2-hydroxy-ethanesulfonyl}-1,3,8-triaza-spiro[4.5]dec-1-en-4-one], for which the “cAMP production activity (%)” value is 33%.

Consider `Cc1cc(C(=O)N2CCC(C)(O)CC2)cc(C)c1/C=C/S(=O)(=O)N1CCC2(CC1)N=C(C1CCC(CCC(F)(F)F)CC1)NC2=O` (centres unmarked) [Compound 989, 8-{(E)-2-[4-(4-Hydroxy-4-methyl-piperidine-1-carbonyl)-2,6-dimethyl-phenyl]-ethenesulfonyl}-2-[4-(3,3,3-trifluoro-propyl)-cyclohexyl]-1,3,8-triaza-spiro[4.5]dec-1-en-4-one], for which the “cAMP production activity (%)” value stood at 86%.

As to `Cc1cc(CCS(=O)(=O)N2CCC3(CC2)N=C(C2CCC(C)CC2)NC3=O)cc(C)c1N1C(=O)CNC1=O` (centres unmarked) [Compound 749, 3-(2,6-dimethyl-4-{2-[2-(4-methyl-cyclohexyl)-4-oxo-1,3,8-triaza-spiro[4.5]dec-1-ene-8-sulfonyl]-ethyl}-phenyl)-imidazolidine-2,4-dione], the “cAMP production activity (%)” value amounted to 77%.

Consider `CC(C)(C)[C@H]1CC[C@H](C2=NC3(CCN(S(=O)(=O)c4cccc(Cl)c4)CC3)C(=O)N2)CC1` [Compound 26, 2-(4-tert-butyl-cyclohexyl)-8-(3-chloro-benzenesulfonyl)-1,3,8-triaza-spiro[4.5]dec-1-en-4-one], for which the “cAMP production activity (%)” value is on record as 36%.

Turning to `Nc1cc(C(F)(F)F)c(/C=C/S(=O)(=O)N2CCC3(CC2)N=C(C2CCCCC2)NC3=O)c(C(F)(F)F)c1` [Compound 491, 8-[(E)-2-(4-amino-2,6-bis-trifluoromethyl-phenyl)-ethenesulfonyl]-2-cyclohexyl-1,3,8-triaza-spiro[4.5]dec-1-en-4-one], the “cAMP production activity (%)” value worked out at 58%.

`O=C1NC(c2ccc(Cl)cc2Cl)=NC12CCN(S(=O)(=O)c1ccc(Cl)cc1)CC2` [Compound 44, 8-(4-Chloro-benzenesulfonyl)-2-(2,4-dichloro-phenyl)-1,3,8-triaza-spiro[4.5]dec-1-en-4-one]: the “cAMP production activity (%)” value is 25%.

For `COc1cccc(/C=C/S(=O)(=O)N2CCC3(CC2)N=C(C2CCCCC2)NC3=O)c1` [Compound 180, 2-cyclohexyl-8-[(E)-2-(3-methoxy-phenyl)-ethenesulfonyl]-1,3,8-triaza-spiro[4.5]dec-1-en-4-one], the “cAMP production activity (%)” value came to 60%.

For `Cc1cc(N2C(=O)N(C)C(C)(C)C2=O)cc(C)c1/C=C/S(=O)(=O)N1CCC2(CC1)N=C(C1CCC(C)CC1)NC2=O` (centres unmarked) [Compound 508, 3-(3,5-dimethyl-4-{(E)-2-[2-(4-methyl-cyclohexyl)-4-oxo-1,3,8-triaza-spiro[4.5]dec-1-ene-8-sulfonyl]-vinyl}-phenyl)-1,5,5-trimethyl-imidazolidine-2,4-dione], the “cAMP production activity (%)” value is on record as 24%.

Regarding `Cc1cc(C(=O)N(C)C)ccc1CCS(=O)(=O)N1CCC2(CC1)N=C(C1(C(F)(F)F)CC1)NC2=O` [Compound 136, 3,N,N-trimethyl-4-{2-[4-oxo-2-(1-trifluoromethyl-cyclopropyl)-1,3,8-triaza-spiro[4.5]dec-1-ene-8-sulfonyl]-ethyl}-benzamide], the “cAMP production activity (%)” value is recorded as 72%.

`CC(=O)Nc1ccc(CCS(=O)(=O)N2CCC3(CC2)N=C(C2CCC(COC(C)C)CC2)NC3=O)c(C)c1` (centres unmarked) [Compound 913, N-(4-{2-[2-(4-isopropoxymethyl-cyclohexyl)-4-oxo-1,3,8-triaza-spiro[4.5]dec-1-ene-8-sulfonyl]-ethyl}-3-methyl-phenyl)-acetamide]: the “cAMP production activity (%)” value was 81%.

On to `Cc1cc(OC[C@H](O)CO)cc(C)c1CCS(=O)(=O)N1CCC2(CC1)N=C(c1cccc(OCCCC(F)(F)C(F)(F)F)c1)NC2=O` [Compound 1328, 8-{2-[4-((R)-2,3-Dihydroxy-propoxy)-2,6-dimethyl-phenyl]-ethanesulfonyl}-2-[3-(4,4,5,5,5-pentafluoro-pentyloxy)-phenyl]-1,3,8-triaza-spiro[4.5]dec-1-en-4-one], for which the “cAMP production activity (%)” value came out at 93%.

Regarding `Cc1cc(C(=O)N2CCC(O)CC2)c(F)cc1CCS(=O)(=O)N1CCC2(CC1)N=C(c1cccc(C(F)(F)F)c1)NC2=O` [Compound 419, 8-{2-[5-fluoro-4-(4-hydroxy-piperidine-1-carbonyl)-2-methyl-phenyl]-ethanesulfonyl}-2-(3-trifluoromethyl-phenyl)-1,3,8-triaza-spiro[4.5]dec-1-en-4-one], the “cAMP production activity (%)” value came to 96%.

Take `Cc1c(CCS(=O)(=O)N2CCC3(CC2)N=C(c2cccc(OC(F)(F)F)c2)NC3=O)cccc1C(N)=O` [Compound 410, 2-methyl-3-{2-[4-oxo-2-(3-trifluoromethoxy-phenyl)-1,3,8-triaza-spiro[4.5]dec-1-ene-8-sulfonyl]-ethyl}-benzamide]: the “cAMP production activity (%)” value was determined as 96%.

Regarding `Cc1cc(C(=O)N2CC(C)(O)C2)cc(C)c1/C=C/S(=O)(=O)N1CCC2(CC1)N=C(c1ccc(F)c(C(F)(F)F)c1)NC2=O` [Compound 970, 2-(4-fluoro-3-trifluoromethyl-phenyl)-8-{(E)-2-[4-(3-hydroxy-3-methyl-azetidine-1-carbonyl)-2,6-dimethyl-phenyl]-ethenesulfonyl}-1,3,8-triaza-spiro[4.5]dec-1-en-4-one], the “cAMP production activity (%)” value came out at 112%.

Take `Cc1cc(N(C)C(N)=O)cc(C)c1/C=C/S(=O)(=O)N1CCC2(CC1)N=C(c1ccc(F)c(C(F)(F)F)c1)NC2=O` [Compound 1017, 1-(4-{(E)-2-[2-(4-Fluoro-3-trifluoromethyl-phenyl)-4-oxo-1,3,8-triaza-spiro[4.5]dec-1-ene-8-sulfonyl]-vinyl}-3,5-dimethyl-phenyl)-1-methyl-urea]: the “cAMP production activity (%)” value is 101%.

As to `Cc1cc(C(=O)N(C)C)ccc1CCS(=O)(=O)N1CCC2(CC1)N=C(c1ccc(C(F)(F)F)c(F)c1)NC2=O` [Compound 96, 4-{2-[2-(3-fluoro-4-trifluoromethyl-phenyl)-4-oxo-1,3,8-triaza-spiro[4.5]dec-1-ene-8-sulfonyl]-ethyl}-3,N,N-trimethyl-benzamide], the “cAMP production activity (%)” value was determined as 70%.
